The values below come from publication PMC10962542, “Inhibition of Aurora‐A/N‐Myc Protein–Protein Interaction Using Peptidomimetics: Understanding the Role of Peptide Cyclization” (Chembiochem, 2023).

As usually defined, the IC50 is the concentration at which inhibition is half-maximal.

Each structure is given as a SMILES string. Marks after values point to notes of the source that are not given here. *1 amine or outer side, *2 acyl side, *3 side chain or, on linkers, in order; H or OH if unused. Where a SMILES comes first, the peptide text is derived from it. Bridges are numbered along the chain shown (N, C = ends). Maleimide(3,4-diyl) = O=C1NC(=O)C([*:2])=C1[*:1]

Data set [1] is described as follows: circular dichroism. On the set-up: unit not given here. Particulars: 25 mM Tris, 150 mM NaCl, 5 mM MgCl2; pH 7.5; 5 °C; 30-120 uM. (CD spectra are sensitive to the conformation of chiral molecules.)
Data set [2] deals with T1, N‐Myc/Aurora‐A interaction (Aurora‐A122‐403‐C290A/C393A) (Homo sapiens, UniProt O14965, C290A/C393A).
T1 construct: Aurora‐A 122‐403‐C290A/C393A protein was produced as described previously; made in house
T1 sequence (O14965 122-403 C290A/C393A): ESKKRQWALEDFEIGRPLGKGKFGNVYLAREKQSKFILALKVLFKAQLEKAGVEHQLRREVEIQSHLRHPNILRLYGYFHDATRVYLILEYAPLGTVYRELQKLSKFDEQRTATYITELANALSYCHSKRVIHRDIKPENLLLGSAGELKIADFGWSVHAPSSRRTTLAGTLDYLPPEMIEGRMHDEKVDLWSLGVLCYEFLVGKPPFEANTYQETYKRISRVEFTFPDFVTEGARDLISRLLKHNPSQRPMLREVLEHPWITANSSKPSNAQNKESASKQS
Nature of the data set: competition fluorescence anisotropy (FA) assay against fluorescein labelled N‐Myc61‐89. Also: equilibrated 2 h at room temperature. As to conditions: SD. It is filed as binding.

The nature of data set [3]: circular dichroism (CD) spectroscopy. As to conditions: 150 mM NaCl, 5 mM MgCl2, pH 7.5, 5 °C, n=2, free‐thiol (red) samples with 5 mol equivalents TCEP; for MRE222 (mean residue ellipticity at 222 nm): 25 mM Tris, mean ± SD, SD; for % Helicity (estimated): from MRE222 by equation 7, 25 mM Tris. It is filed as physicochemical. The essentials: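 Peptides at 30–120 μM in 25 mM Tris, 150 mM NaCl, 5 mM MgCl2, pH 7.5 (plus 5 mol eq. TCEP for free sulfhydryl peptides) were scanned in duplicate at 5 °C from 290 to 180 nm, 1 mm pathlength. Buffer-subtracted ellipticity gave mean residue ellipticity, and % helicity was estimated from MRE at 222 nm.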

The compound `CSCC[C@H](NC(=O)[C@H](CCC(=O)O)NC(=O)[C@@H](NC(=O)[C@@H](NC(=O)[C@H](Cc1c[nH]c2ccccc12)NC(=O)[C@H](CO)NC(=O)[C@@H]1CCCN1C(=O)[C@@H]1CCCN1C(=O)[C@H](CCC(=O)O)NC(C)=O)C(C)C)[C@@H](C)O)C(=O)N[C@@H](CC(C)C)C(=O)N[C@@H](CC(C)C)C(=O)N[C@@H](CCC(=O)O)C(=O)N[C@H]1CSC2=C(SC[C@@H](C(=O)N[C@@H](CO)C(=O)N3CCC[C@H]3C(=O)N[C@@H](C)C(=O)N[C@@H](CCC(=O)O)C(=O)N[C@@H](CCC(=O)O)C(N)=O)NC(=O)[C@H](Cc3c[nH]c4ccccc34)NC(=O)[C@H](CC(C)C)NC(=O)[C@H](CCC(=O)O)NC1=O)C(=O)NC2=O` [N‐Myc73‐94‐N85C/G89C (mal)] (Ac-EPPSWVTEMLLECELWCSPAEE-NH2; linker 13-17 via Maleimide(3,4-diyl)) showed a helicity in data set [1] of -7220. The IC50 in data set [2] was 49 ± 5 µM.
As to `CSCC[C@H](NC(=O)[C@H](CCC(=O)O)NC(=O)[C@@H](NC(=O)[C@@H](NC(=O)[C@H](Cc1c[nH]c2ccccc12)NC(=O)[C@H](CO)NC(=O)[C@@H]1CCCN1C(=O)[C@@H]1CCCN1C(=O)[C@H](CCC(=O)O)NC(C)=O)C(C)C)[C@@H](C)O)C(=O)N[C@@H](CC(C)C)C(=O)N[C@@H](CC(C)C)C(=O)N[C@@H](CCC(=O)O)C(=O)N[C@@H](CC(N)=O)C(=O)N[C@@H](CCC(=O)O)C(=O)N[C@@H](CC(C)C)C(=O)N[C@@H](Cc1c[nH]c2ccccc12)C(=O)NCC(N)=O` [N‐Myc73‐89], in data set [1], the helicity was -4080. Further, in data set [3], the “MRE222 (mean residue ellipticity at 222 nm)” value (“MRE222” for short) is recorded as −4079±71 deg cm^−1 dmol^−1 res^−1 and the “% Helicity (estimated)” value is reported as 13±1%.
For `CSCC[C@H](NC(=O)[C@H](CCC(=O)O)NC(=O)[C@@H](NC(=O)[C@@H](NC(=O)[C@H](Cc1c[nH]c2ccccc12)NC(=O)[C@H](CO)NC(=O)[C@@H]1CCCN1C(=O)[C@@H]1CCCN1C(=O)[C@H](CCC(=O)O)NC(C)=O)C(C)C)[C@@H](C)O)C(=O)N[C@@H](CC(C)C)C(=O)N[C@@H](CC(C)C)C(=O)N[C@@H](CCC(=O)O)C(=O)N[C@H]1CSSC[C@@H](C(=O)N[C@@H](CO)C(=O)N2CCC[C@H]2C(=O)N[C@@H](C)C(=O)N[C@@H](CCC(=O)O)C(=O)N[C@@H](CCC(=O)O)C(N)=O)NC(=O)[C@H](Cc2c[nH]c3ccccc23)NC(=O)[C@H](CC(C)C)NC(=O)[C@H](CCC(=O)O)NC1=O` [N‐Myc73‐94‐N85C/G89C (ox)] (Ac-EPPSWVTEMLLECELWCSPAEE-NH2; disulfide 13-17), the helicity in data set [1] is -5260. Also, in data set [2], the IC50 was 130 ± 9 µM. Further, in data set [3], the “MRE222” value is listed as −5255±217 deg cm^−1 dmol^−1 res^−1 and the “% Helicity (estimated)” value is 15±1%.
For `CSCC[C@H](NC(=O)[C@H](CCC(=O)O)NC(=O)[C@@H](NC(=O)[C@@H](NC(=O)[C@H](Cc1c[nH]c2ccccc12)NC(=O)[C@H](CO)NC(=O)[C@@H]1CCCN1C(=O)[C@@H]1CCCN1C(=O)[C@H](CCC(=O)O)NC(C)=O)C(C)C)[C@@H](C)O)C(=O)N[C@@H](CC(C)C)C(=O)N[C@@H](CC(C)C)C(=O)N[C@@H](CCC(=O)O)C(=O)N[C@@H](CC(N)=O)C(=O)N[C@@H](CS)C(=O)N[C@@H](CC(C)C)C(=O)N[C@@H](Cc1c[nH]c2ccccc12)C(=O)NCC(=O)N[C@@H](CS)C(=O)N1CCC[C@H]1C(=O)N[C@@H](C)C(=O)N[C@@H](CCC(=O)O)C(=O)N[C@@H](CCC(=O)O)C(N)=O` [N‐Myc73‐94‐E86C/S90C (red)] (Ac-EPPSWVTEMLLENCLWGCPAEE-NH2), in that order: -6400, 203 ± 4 µM, −6397±64^[e] deg cm^−1 dmol^−1 res^−1 and 18±1%.
For `CSCC[C@H](NC(=O)[C@H](CCC(=O)O)NC(=O)[C@@H](NC(=O)[C@@H](NC(=O)[C@H](Cc1c[nH]c2ccccc12)NC(=O)[C@H](CO)NC(=O)[C@@H]1CCCN1C(=O)[C@@H]1CCCN1C(=O)[C@H](CCC(=O)O)NC(C)=O)C(C)C)[C@@H](C)O)C(=O)N[C@@H](CC(C)C)C(=O)N[C@@H](CC(C)C)C(=O)N[C@@H](CCC(=O)O)C(=O)N[C@@H](CC(N)=O)C(=O)N[C@H]1CSSC[C@@H](C(=O)N2CCC[C@H]2C(=O)N[C@@H](C)C(=O)N[C@@H](CCC(=O)O)C(=O)N[C@@H](CCC(=O)O)C(N)=O)NC(=O)CNC(=O)[C@H](Cc2c[nH]c3ccccc23)NC(=O)[C@H](CC(C)C)NC1=O` [N‐Myc73‐94‐E86C/S90C (ox)] (Ac-EPPSWVTEMLLENCLWGCPAEE-NH2; disulfide 14-18), in that order: -7450, 172 ± 23 µM, −7454±130 deg cm^−1 dmol^−1 res^−1 and 21±1%.
As to `CSCC[C@H](NC(=O)[C@@H]1CSSC[C@H](NC(=O)[C@@H]2CCCN2C(=O)[C@@H]2CCCN2C(=O)[C@H](CCC(=O)O)NC(=O)[C@H](CO)NC(=O)[C@H](CO)NC(=O)[C@H](Cc2c[nH]cn2)NC(=O)[C@H](CCC(=O)O)NC(=O)[C@H](C)NC(=O)[C@H](Cc2ccccc2)NC(=O)CNC(=O)[C@H](CCCNC(=N)N)NC(=O)[C@H](CO)NC(=O)[C@@H]2CCCN2C(=O)[C@H](CO)NC(=O)[C@H](CC(C)C)NC(C)=O)C(=O)N[C@@H](Cc2c[nH]c3ccccc23)C(=O)N[C@@H](C(C)C)C(=O)N[C@@H]([C@@H](C)O)C(=O)N1)C(=O)N[C@@H](CC(C)C)C(=O)N[C@@H](CC(C)C)C(=O)N[C@@H](CCC(=O)O)C(=O)N[C@@H](CC(N)=O)C(=O)N[C@@H](CCC(=O)O)C(=O)N[C@@H](CC(C)C)C(=O)N[C@@H](Cc1c[nH]c2ccccc12)C(=O)NCC(N)=O` [N-Myc 61-89 S76C/E80 ox] (Ac-LSPSRGFAEHSSEPPCWVTCMLLENELWG-NH2; disulfide 16-20), in data set [2], the concentration for half-maximal inhibition (IC50) was 84 ± 9 µM. For the same compound, in data set [3], the “MRE222” value is on record as -2141 ± 88 deg cm^−1 dmol^−1 res^−1 and the “% Helicity (estimated)” value is given as 7 ± 1%.
The like results for `CC(=O)N[C@@H](CC(C)C)C(=O)N[C@@H](CO)C(=O)N1CCC[C@H]1C(=O)N[C@@H](CO)C(=O)N[C@@H](CCCNC(=N)N)C(=O)NCC(=O)N[C@@H](Cc1ccccc1)C(=O)N[C@@H](C)C(=O)N[C@@H](CCC(=O)O)C(=O)N[C@@H](Cc1c[nH]cn1)C(=O)N[C@@H](CO)C(=O)N[C@@H](CO)C(=O)N[C@@H](CCC(=O)O)C(=O)N1CCC[C@H]1C(=O)N1CCC[C@H]1C(=O)N[C@@H](CO)C(=O)N[C@@H](Cc1c[nH]c2ccccc12)C(=O)N[C@H](C(=O)N[C@H](C(=O)N[C@@H](CCC(=O)O)C(=O)N[C@H]1CSSC[C@@H](C(=O)N[C@@H](CCC(=O)O)C(=O)N[C@@H](CC(C)C)C(=O)N[C@@H](Cc2c[nH]c3ccccc23)C(=O)NCC(N)=O)NC(=O)[C@H](CCC(=O)O)NC(=O)[C@H](CC(C)C)NC(=O)[C@H](CC(C)C)NC1=O)[C@@H](C)O)C(C)C` [N-Myc 61-89 M81C/N85C ox] (Ac-LSPSRGFAEHSSEPPSWVTECLLECELWG-NH2; disulfide 21-25) were, in that order, 92 ± 13 µM, -2894 ± 119 deg cm^−1 dmol^−1 res^−1 and 9 ± 1%.
As for `CSCC[C@H](NC(=O)[C@H](CCC(=O)O)NC(=O)[C@@H](NC(=O)[C@@H](NC(=O)[C@H](Cc1c[nH]c2ccccc12)NC(=O)[C@H](CO)NC(=O)[C@@H]1CCCN1C(=O)[C@@H]1CCCN1C(=O)[C@H](COP(=O)(O)O)NC(C)=O)C(C)C)[C@@H](C)O)C(=O)N[C@@H](CC(C)C)C(=O)N[C@@H](CC(C)C)C(=O)N[C@@H](CCC(=O)O)C(=O)N[C@@H](CC(N)=O)C(=O)N[C@@H](CCC(=O)O)C(=O)N[C@@H](CC(C)C)C(=O)N[C@@H](Cc1c[nH]c2ccccc12)C(=O)NCC(N)=O` [N‐Myc73‐89‐E73pS], the helicity in data set [1] is -5390. Also, in data set [3], the “MRE222” value is on record as −5394±235 deg cm^−1 dmol^−1 res^−1 and the “% Helicity (estimated)” value was 16±1%.
Compound `CSCC[C@H](NC(=O)[C@H](CCC(=O)O)NC(=O)[C@@H](NC(=O)[C@@H](NC(=O)[C@H](Cc1c[nH]c2ccccc12)NC(=O)[C@H](CO)NC(=O)[C@@H]1CCCN1C(=O)[C@@H]1CCCN1C(=O)[C@H](CCC(=O)O)NC(C)=O)C(C)C)[C@@H](C)O)C(=O)N[C@@H](CC(C)C)C(=O)N[C@@H](CC(C)C)C(=O)N[C@@H](CCC(=O)O)C(=O)N[C@@H](CC(N)=O)C(=O)N[C@H]1CSC2=C(SC[C@@H](C(=O)N3CCC[C@H]3C(=O)N[C@@H](C)C(=O)N[C@@H](CCC(=O)O)C(=O)N[C@@H](CCC(=O)O)C(N)=O)NC(=O)CNC(=O)[C@H](Cc3c[nH]c4ccccc34)NC(=O)[C@H](CC(C)C)NC1=O)C(=O)NC2=O` [N‐Myc73‐94‐E86C/S90C (mal)] (Ac-EPPSWVTEMLLENCLWGCPAEE-NH2; linker 14-18 via Maleimide(3,4-diyl)) gave a helicity in data set [1] of -5720. The compound further yielded a 50% inhibitory concentration (IC50) in data set [2] of 111 ± 18 µM.
